Source: patent publication US9580487B2, “Method of treating stomach or bowel-related disorders by administering glucagon-like-peptide-2 (GLP-2) analogues” (Zealand Pharma A/S, priority 2005, dated 2017)
“Also recorded” adds a separate entry of the source. No end group written: not given here.

Tested on: male C57BL mice
Test: Screening for intestinal growth effects (small intestine and colon mass relative to body weight, small intestine-colon sensitivity index)
Type: in vivo
Conditions: for Preferential growth of small intestine versus colon (small intestine-colon sensitivity): 30 nmol/kg s.c. twice daily, ten days, relative to [Gly2]GLP-2; for colon mass relative to body weight, % [Gly2]GLP-2 / small intestine-colon sensitivity index, (SI/Colon)X/(SI/Colon)[Gly2]GLP-2 %: male C57BL mice, 30 nmol/kg s.c. twice daily for ten days; for small intestine-colon sensitivity index, (SI/Colon)X/(SI/Colon)[Gly2]GLP-2 %: third value column
Experimental: The ability of the present compounds to stimulate intestinal growth was determined in male C57BL mice. Individual groups (n=6) of mice were given 30 nmol/kg of each compound, s.c, twice daily for ten consecutive days. For comparison purposes other groups of animals were given either an equimolar dose of [Gly2]GLP-2 (SEQ ID NO:54) or vehicle (phosphate buffered saline, pH 7.4) in the same dosing regimen. Twenty-four hours after the last dose of compound had been given the mice were sacrificed and the small intestine (from the pylorus to the cecum) and the colon (intestine distal to cecum) was emptied and weighed. To correct for slight difference in body weight (BW), the organ mass of the small intestine (SI) and colon were expressed relative to BW. The non-selective reference compound [Gly2]GLP-2 (SEQ ID NO:54) has been reported to stimulate gastrointestinal growth in both esophagus, stomach, small intestine and colon and to evaluate differences in growth pattern induced by compounds, the small intestine-colon sensitivity index of compound X was calculated as:
(SI/Colon)X/(SI/Colon)[Gly2]GLP-2%
Compounds with a small intestine-colon sensitivity greater than or equal to 1.05 were considered relatively selective for the small intestine (Table 15).
Compounds with a small intestine-colon sensitivity smaller than or equal to 0.95 were considered relatively selective for the colon (Table 15).

Substance	Preferential growth of small intestine versus colon (small intestine-colon sensitivity)	colon mass relative to body weight, % [Gly2]GLP-2	small intestine-colon sensitivity index, (SI/Colon)X/(SI/Colon)[Gly2]GLP-2 %
[Gly2, Glu3, Thr5, Leu10, Ser11, Ala16,24,28]hGLP-2(1-33)-NH2 (HGEGTFSDELSTILDALAARDFIAWLIATKITD-NH2) [Compound 1854]	without preferential growth in small intestine or colon	–	–
[Gly2, Ser8, Leu10, Ala11,24]hGLP-2(1-30)-K6-NH2 [Compound 1818]	supplementary increase in the weight of the small intestine without significant effecting the weight of the colon; also recorded: preferentially stimulating epithelial growth in the small intestine	–	–
[Thr7, Ser8, Leu10, Lys11, Ala24]hGLP-2 (1-30)-NH2 [Compound 1842]	without preferential growth in small intestine or colon	–	–
[Gly2, Leu10, Ser11, Ala24]hGLP-2(1-30)-NH2 (HGDGSFSDELSTILDNLAARDFIAWLIQTK-NH2) [Compound 1830]	preferentially stimulating epithelial growth in the colon	106 % [Gly2]GLP-2	94 % [Gly2]GLP-2
[Gly2, Thr7, Leu10, Ser8,11, Ala24]hGLP-2(1-30)-K6-NH2 [Compound 1828]	without preferential growth in small intestine or colon	–	–
[Gly2, Glu3, Leu10, Lys11, Ala16,24,28]hGLP-2(1-33)-NH2 (HGEGSFSDELKTILDALAARDFIAWLIATKITD-NH2) [Compound 1859]	preferentially stimulating epithelial growth in the small intestine	73 % [Gly2]GLP-2	114 % [Gly2]GLP-2
[Leu10, Ala11, Ala24]hGLP-2 (1-33)-K6-NH2 [Compound 1839]	preferentially stimulating epithelial growth in the colon	133 % [Gly2]GLP-2	84 % [Gly2]GLP-2
[Gly2, Thr7, Ser8, Leu10, Lys11, Ala24]hGLP-2(1-30)-K6-NH2 [Compound 1823]	without preferential growth in small intestine or colon	–	–
[Gly2, Glu3, Thr5, Ser8,11, Leu10, Ala16,24,28]hGLP-2(1-33)-NH2 (HGEGTFSSELSTILDALAARDFIAWLIATKITD-NH2) [Compound 1853]	supplementary increase in the weight of the small intestine without significant effecting the weight of the colon; also recorded: preferentially stimulating epithelial growth in the small intestine	96 % [Gly2]GLP-2	105 % [Gly2]GLP-2
[Gly2, Leu10, Ser8,11, Ala24]hGLP-2(1-30)-NH2 (HGDGSFSSELSTILDNLAARDFIAWLIQTK-NH2) [Compound 1833]	without preferential growth in small intestine or colon	–	–
[Gly2, Thr7, Leu10, Lys11, Ala24]hGLP-2(1-30)-NH2 (HGDGSFTDELKTILDNLAARDFIAWLIQTK-NH2) [Compound 1836]	preferentially stimulating epithelial growth in the colon	105 % [Gly2]GLP-2	90 % [Gly2]GLP-2
[Gly2, Glu3, Thr5, Ser8,11, Leu10, Ala16,24,28]hGLP-2(1-33)-(Lys)6-NH2 (HGEGTFSSELSTILDALAARDFIAWLIATKITDKKKKKK-NH2) [Compound 1844]	supplementary increase in the weight of the small intestine without significant effecting the weight of the colon; also recorded: preferentially stimulating epithelial growth in the small intestine	89 % [Gly2]GLP-2	119 % [Gly2]GLP-2
